The record followed here is US9452997B2, “Piperidine and piperazine derivatives as autotaxin inhibitors” (Merck Patent GmbH, priority 2009, dated 2016).

The first experiment addresses T1, Recombinant autotaxin (Homo sapiens, UniProt Q13822).
T1 construct: made in house; host or cells: Hi5 insect cells (baculovirus)
Description: Autotaxin assay (Amplex Red, LPC substrate). The class given is biochemical. To be noted: % of control at 1E−05 (compound concentration); uninhibited control = 100%. How it is done: Autotaxin activity is measured indirectly by means of Amplex Red Reagent. In this course, Amplex Red is measured as fluorogenic indicator for generated H2O2. Autotaxin converts substrate lysophosphatidylcholine (LPC) to phosphocholine and lysophosphatidylic acid (LPA). After the conversion phosphocholine is reacted with alkaline phosphatase to obtain inorganic phosphate and choline. During the next step choline is oxidized with choline oxidase to yield betaine, whereby H2O2 is generated. H2O2 reacts with Amplex Red Reagent in the presence of peroxidase (Horseradish peroxidase) in an 1:1 stochiometry and yields highly fluorescent resorufin. The generated fluorescence is measured in a reaction-dependent kinetic mode in order to enable subtraction of fluorescence signals of possible other fluorescent compounds that are not part of the reaction from total measured fluorescence.
1.5 μl of a standard solution or of the compounds of the invention are dissolved in 20 mM Hepes pH 7.2 with maximally 7.7% DMSO in individual concentrations. The resulting solution is pre-incubated together with 10 μl (16 ng) of highly purified recombinant autotaxin in a black 384-hole microtiter plate for 30 min at 22° C.
Thereafter, the reaction is started through the addition of 5 μL-a-lysophosphatidyl-choline (LPC), whereby the final concentration of LPC is 75 μM. The mixture is incubated for 90 min. at 37° C. After the incubation Amplex Red Reagent, peroxidase (Horseradish peroxidase) and choline oxidase are added. The fluorescence is immediately measured at a wavelength of 612 nm with an excitation wavelength of 485 nm in a “Tecan Ultra multimode” fluorescence reader. The activity of autotaxin is indirectly calculated via the amount of detected generated H2O2.
For IC50 analysis, ten serial 1:3 dilutions starting at 30 μM for each compound were run in duplicates.
IC50 values were calculated on normalized data. For normalization, control wells were added to each assay plate and the signal of uninhibited control wells was set to 100%, whereas the signal inhibited by 500 μM C14 LPA, (Avanti Polar Lipids, Cat#857120P) was set to 0%. Curves were fitted and IC50 values calculated by the following model using proprietory analysis software: Y=Bottom+(100−Bottom)/(1+10^((Log IC50−X)*HillSlope)) Where X is the logarithm of concentration. Y is the response; Y starts at Bottom and goes to Top with a sigmoid shape. Material
Microtiter plate: PS-Microplate, 384-hole, small volume, black Corning, Cat#3677
Protein: Recombinant autotaxin (baculoviral Hi5 expression)
Substrate: L-a-lysophosphatidyl choline (chicken egg); Avanti Polar Lipids #830071P
Standard: C14 LPA, Avanti Polar Lipids, Cat#857120P
Detection Reagent: Amplex Red Reagent; Invitrogen #A12222; dissolved in 1.923 ml of DMSO peroxidase Type VI-A (horseradish), Sigma #P6782; dissolved in 7.45 ml of test buffer, Choline Oxidase; Sigma #C5896; dissolved in 2.47 ml test buffer
Detection Reagent Mix: 1:100 dilution of Amplex Red Regent in test buffer
Test buffer: 200 mM Tris-HCl, Merck, Cat #1.08219, pH 7.9; 0.1% BSA, lipid free, Roche Cat#775835
As to `O=C(Cc1ccc(C(F)(F)F)c(F)c1)N1CCN(C2CCN(C(=O)c3ccc4[nH]nnc4c3)CC2)CC1` [Compound 102, 1-{4-[1-(1H-Benzotriazole-5-carbonyl)-piperidin-4-yl]-piperazin-1-yl}-2-(3-fluoro-4-trifluoromethyl-phenyl)-ethanone], the “% CTRL (1E−05)” value is 24%.

The experiment is the same for the next values; noted with them: recombinant autotaxin, LPC substrate, Amplex Red detection; values given as upper bounds.
`Cc1c(Br)cc(COC(=O)N2CCN(C3CCN(C(=O)c4ccc5[nH]nnc5c4)CC3)CC2)cc1Br` [Compound 98, 4-[1-(1H-Benzotriazole-5-carbonyl)-piperidin-4-yl]-piperazine-1-carboxylic acid 3,5-dibromo-4-methyl-benzyl ester]: the IC50 is under 1000 nM. Take `O=C(Nc1ccc(-c2csnn2)cc1)C1CC(=O)N(C2CCN(C(=O)OCc3cc(Cl)cc(Cl)c3)CC2)C1` (stereo not shown) [Compound 57, 4-[2-Oxo-4-(4-[1,2,3]thiadiazol-4-yl-phenylcarbamoyl)-pyrrolidin-1-yl]-piperidine-1-carboxylic acid 3,5-dichloro-benzyl ester]: the IC50 is under 10000 nM. On the same count and under the same terms, then `CN(C1CCN(C(=O)OCc2ccc(C(F)(F)F)cc2)CC1)C1CCN(C(=O)c2ccc3[nH]nnc3c2)C1` (stereo not shown) [Compound 182, 4-{[1-(1H-Benzotriazole-5-carbonyl)-pyrrolidin-3-yl]-methyl-amino}-piperidine-1-carboxylic acid 4-trifluoromethyl-benzyl ester], with under 10000 nM.

Consider `O=C(CCc1ccc(C(F)(F)F)cc1)N1CCN(C2CCN(C(=O)c3ccc4[nH]c(=O)oc4c3)CC2)CC1` [Compound 33, 6-(4-{4-[3-(4-Trifluoromethyl-phenyl)-propionyl]-piperazin-1-yl}-piperidine-1-carbonyl)-3H-benzooxazol-2-one], for which the IC50 was under 1000 nM. On the same count and under the same terms, as for `O=C(OCc1cc(F)cc(Br)c1)N1CCN(C2CCN(C(=O)c3ccc4[nH]nnc4c3)CC2)CC1` [Compound 154, 4-[1-(1H-Benzotriazole-5-carbonyl)-piperidin-4-yl]-piperazine-1-carboxylic acid 3-bromo-5-fluoro-benzyl ester], the figure is under 1000 nM; as for `O=C(OCc1ccc(C(F)(F)F)cc1)N1CCN(C2CCN(C(=O)c3ccc4[nH]c(=O)sc4c3)CC2)CC1` [Compound 126, 4-[1-(2-Oxo-2,3-dihydro-benzothiazole-6-carbonyl)-piperidin-4-yl]-piperazine-1-carboxylic acid 4-trifluoromethyl-benzyl ester], under 10000 nM. Turning to `Cc1nc(-c2ccc(C(F)(F)F)cc2)sc1C(=O)N1CCC(N2CC(C(=O)Nc3ccc4[nH]nnc4c3)CC2=O)CC1` (stereo not shown) [Compound 24, 1-{1-[4-Methyl-2-(4-trifluoromethyl-phenyl)-thiazole-5-carbonyl]-piperidin-4-yl}-5-oxo-pyrrolidine-3-carboxylic acid (1H-benzotriazol-5-yl)-amide], the IC50 was under 10000 nM.

For the compound `O=C(OCc1cc(Cl)cc(C(F)(F)F)c1F)N1CCN(C2CCN(C(=O)c3ccc4[nH]nnc4c3)CC2)CC1` [Compound 99, 4-[1-(1H-Benzotriazole-5-carbonyl)-piperidin-4-yl]-piperazine-1-carboxylic acid 5-chloro-2-fluoro-3-trifluoromethyl-benzyl ester], the IC50 is under 1000 nM.

On to `Cc1c(Br)cc(CCC(=O)N2CCN(C3CCN(C(=O)c4ccc5[nH]nnc5c4)CC3)CC2)cc1Br` [Compound 130, 1-{4-[1-(1H-Benzotriazole-5-carbonyl)-piperidin-4-yl]-piperazin-1-yl}-3-(3,5-dibromo-4-methyl-phenyl)-propan-1-one], for which the IC50 is under 10000 nM.

With `O=C(c1ccc2[nH]nnc2c1)N1CCC(N2CCN(C(=O)c3cc4cc(Br)ccc4o3)CC2)CC1` [Compound 159, (1H-Benzotriazol-5-yl)-{4-[4-(5-bromo-benzofuran-2-carbonyl)-piperazin-1-yl]-piperidin-1-yl}-methanone], the IC50 is under 10000 nM.

In the case of `O=C(OCc1ccc(C(F)(F)F)cc1)N1CCC(n2ccc(-c3ccc4[nH]c(=O)oc4c3)n2)CC1` [Compound 108], the IC50 is under 10000 nM. Take `O=C(Nc1ccc2[nH]c(=O)oc2c1)C1CC(=O)N(C2CCN(C(=O)OCc3cc(Cl)cc(Cl)c3)CC2)C1` (stereo not shown) [Compound 15, 4-[2-Oxo-4-(2-oxo-2,3-dihydro-benzooxazol-6-ylcarbamoyl)-pyrrolidin-1-yl]-piperidine-1-carboxylic acid 3,5-dichloro-benzyl ester]: the IC50 was under 1000 nM. For the compound `O=C(NCc1ccc(SC(F)(F)F)cc1)N1CCN(C2CCN(C(=O)c3ccc4[nH]nnc4c3)CC2)CC1` [Compound 122, 4-[1-(1H-Benzotriazole-5-carbonyl)-piperidin-4-yl]-piperazine-1-carboxylic acid 4-trifluoromethylsulfanyl-benzylamide], the concentration for half-maximal inhibition (IC50) was under 10000 nM. In the case of `O=C(OCc1cc(F)cc(C(F)(F)F)c1)N1CCC(N2CCN(C(=O)c3ccc4[nH]nnc4c3)CC2)CC1` [Compound 75, 4-[4-(1H-Benzotriazole-5-carbonyl)-piperazin-1-yl]-piperidine-1-carboxylic acid 3-fluoro-5-trifluoromethyl-benzyl ester], the IC50 is under 1000 nM. Take `CC(C)c1ccc(COC(=O)N2CCC(N3CCN(C(=O)c4ccc5[nH]nnc5c4)CC3)CC2)cc1` [Compound 87, 4-[4-(1H-Benzotriazole-5-carbonyl)-piperazin-1-yl]-piperidine-1-carboxylic acid 4-isopropyl-benzyl ester]: the IC50 is under 1000 nM. Consider `O=C(OCc1ccc(F)c(Cl)c1)N1CCC(N2CCN(C(=O)c3ccc4[nH]nnc4c3)CC2)CC1` [Compound 78, 4-[4-(1H-Benzotriazole-5-carbonyl)-piperazin-1-yl]-piperidine-1-carboxylic acid 3-chloro-4-fluoro-benzyl ester], for which the IC50 is under 1000 nM. For `O=C(OCc1cc(F)cc(Cl)c1)N1CCN(C2CCN(C(=O)c3ccc4[nH]nnc4c3)CC2)CC1` [Compound 152, 4-[1-(1H-Benzotriazole-5-carbonyl)-piperidin-4-yl]-piperazine-1-carboxylic acid 3-chloro-5-fluoro-benzyl ester], the 50% inhibitory concentration (IC50) was under 1000 nM. On to `O=C(OCc1ccc(Cl)cc1F)N1CCN(C2CCN(C(=O)c3ccc4[nH]nnc4c3)CC2)CC1` [Compound 36, 4-[1-(1H-Benzotriazole-5-carbonyl)-piperidin-4-yl]-piperazine-1-carboxylic acid 4-chloro-2-fluoro-benzyl ester], for which the IC50 was under 1000 nM. For `CC(OC(=O)N1CCN(C2CCN(C(=O)c3ccc4[nH]nnc4c3)CC2)CC1)c1cc(C(F)(F)F)cc(C(F)(F)F)c1` (stereo not shown) [Compound 172, 4-[1-(1H-Benzotriazole-5-carbonyl)-piperidin-4-yl]-piperazine-1-carboxylic acid 1-(3,5-bis-trifluoromethyl-phenyl)-ethyl ester], the half-inhibitory concentration (IC50) was under 10000 nM. For `O=C(Nc1ccc2[nH]nnc2c1)C1CC(=O)N(C2CCN(C(=O)CCc3ccc(C(F)(F)F)cc3)CC2)C1` (stereo not shown) [Compound 3, 5-Oxo-1-{1-[3-(4-trifluoromethyl-phenyl)-propionyl]-piperidin-4-yl}-pyrrolidine-3-carboxylic acid (1H-benzotriazol-5-yl)-amide], the concentration for half-maximal inhibition (IC50) is under 1000 nM. Still for that read-out and setting: as for `O=C(CCc1ccc(Cl)cc1F)N1CCN(C2CCN(C(=O)c3ccc4[nH]nnc4c3)CC2)CC1` [Compound 67, 1-{4-[1-(1H-Benzotriazole-5-carbonyl)-piperidin-4-yl]-piperazin-1-yl}-3-(4-chloro-2-fluoro-phenyl)-propan-1-one], the figure is under 10000 nM.
